For one test, the target named is T1, AChE (Homo sapiens, UniProt P22303).
T1 construct: purchased Sigma-Aldrich (Germany)
Description: AChE inhibition assay (Ellman's method). It is filed as biochemical. The procedure: The AChE inhibitory activity of the synthesized compounds was determined using Ellman's method, with slight modifications to optimize experimental conditions.[35] The assay was performed following the procedures described in our previous study.[36]
(In general: Ellman's reagent forms a yellow product with free thiols.)

In the next test the target is T2, MAGL (Homo sapiens, UniProt Q99685).
T2 construct: purchased Finetest (China)
T2 sequence (Q99685 1-303): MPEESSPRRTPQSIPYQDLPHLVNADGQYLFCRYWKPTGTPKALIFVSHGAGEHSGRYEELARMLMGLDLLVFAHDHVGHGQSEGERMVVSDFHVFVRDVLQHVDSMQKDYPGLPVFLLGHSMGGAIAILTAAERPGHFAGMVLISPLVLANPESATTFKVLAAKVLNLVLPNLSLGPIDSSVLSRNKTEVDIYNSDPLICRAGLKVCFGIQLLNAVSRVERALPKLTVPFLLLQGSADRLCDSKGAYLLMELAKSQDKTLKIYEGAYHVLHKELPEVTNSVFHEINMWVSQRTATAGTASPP
Description: biochemical. As for the experimental part: The MAGL inhibitory activity of the synthesized compounds was assessed using a spectrophotometric assay, employing 4-NPA as a surrogate substrate. The experimental procedure was adapted from a previously published protocol with minor modifications.[37]
The assay was conducted at room temperature using an ELISA reader (EMR-500) with a 96-well plate, with a total reaction volume of 200 μL per well. The reaction system comprised 10 mM tris–HCl buffer (pH 7.2), 1 mM EDTA, and 0.1 mg mL^−1 bovine serum albumin. […] The negative control was prepared by replacing the inhibitor with 10 μL of DMSO. The enzymatic reaction was initiated by adding 40 μL of MAGL enzyme solution (11 ng per well), while the blank control used buffer instead of the enzyme. The reaction mixtures were incubated for 30 minutes, and absorbance was measured at 405 nm. Each sample was tested in triplicate, and IC50 values were determined from the obtained data using GraphPad Prism 8.4.3.

Where [1] appears, read: Ellman's method, read-out: IC50 ± SD AChE.
Where [2] appears, read: 4-NPA 100 μM, 30 min, absorbance 405 nm, triplicate, read-out: IC50 ± SD MAGL.

Molecules are shown by their SMILES. Where two headings read alike, the source gives them in different places.

T1 sequence (P22303 32-614): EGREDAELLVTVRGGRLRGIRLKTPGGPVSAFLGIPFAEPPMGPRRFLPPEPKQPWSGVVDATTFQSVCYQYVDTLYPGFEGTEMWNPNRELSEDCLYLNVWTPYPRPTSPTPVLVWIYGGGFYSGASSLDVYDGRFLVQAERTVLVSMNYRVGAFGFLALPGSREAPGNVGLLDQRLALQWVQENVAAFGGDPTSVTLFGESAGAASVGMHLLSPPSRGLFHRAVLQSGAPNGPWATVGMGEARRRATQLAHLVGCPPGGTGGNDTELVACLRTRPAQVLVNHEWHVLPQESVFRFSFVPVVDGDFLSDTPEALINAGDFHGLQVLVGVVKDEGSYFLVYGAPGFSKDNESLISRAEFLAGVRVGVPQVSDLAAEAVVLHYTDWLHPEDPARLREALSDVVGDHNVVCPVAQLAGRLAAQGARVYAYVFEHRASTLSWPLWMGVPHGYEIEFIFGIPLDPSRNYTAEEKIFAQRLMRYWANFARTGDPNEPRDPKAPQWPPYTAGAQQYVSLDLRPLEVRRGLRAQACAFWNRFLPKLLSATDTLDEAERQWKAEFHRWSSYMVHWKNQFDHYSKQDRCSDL

On to `CCN(CC)C(=O)Oc1ccc(-c2oc3cc(OC(=O)N(CC)CC)cc(O)c3c(=O)c2OC(=O)N(CC)CC)cc1` [Compound K3, 2-(4-((Diethylcarbamoyl)oxy)phenyl)-5-hydroxy-4-oxo-4H-chromene-3,7-diyl bis(diethylcarbamate)], for which the 50% inhibitory concentration (IC50) (commonly the concentration needed to halve the response being measured) on AChE (setting [1]) worked out at 146 ± 10.4 µM; on MAGL (setting [2]), 61.6 ± 3.01 µM.
Consider `CCN(C)C(=O)Oc1cc(OC(=O)N(C)CC)c2c(=O)cc(-c3ccccc3)oc2c1` [Compound C6, 4-Oxo-2-phenyl-4H-chromene-5,7-diyl bis(ethyl(methyl)carbamate)], for which the IC50 on AChE and against MAGL was > 200 µM in each case.
With `CCN(C)C(=O)Oc1cc(O)c2c(=O)cc(-c3ccccc3)oc2c1` [Compound C5, 5-Hydroxy-4-oxo-2-phenyl-4H-chromen-7-yl ethyl(methyl)carbamate], the IC50 against AChE was found to be 89.4 ± 5.66 µM; against MAGL it was 46.6 ± 2.23 µM.
For `CCN(C)C(=O)Oc1ccc(-c2oc3cc(OC(=O)N(C)CC)cc(OC(=O)N(C)CC)c3c(=O)c2OC(=O)N(C)CC)cc1` [Compound K6, 2-(4-((Ethyl(methyl)carbamoyl)oxy)phenyl)-4-oxo-4H-chromene-3,5,7-triyl tris(ethyl(methyl)carbamate)], in that order: > 200 µM and 178 ± 9.12 µM.
Take `CN(C)C(=O)Oc1cc(O)c2c(=O)cc(-c3ccccc3)oc2c1` [Compound C1, 5-Hydroxy-4-oxo-2-phenyl-4H-chromen-7-yl dimethylcarbamate]: the half-maximal inhibitory concentration (IC50) is 188 ± 16.2 µM against AChE and 72.2 ± 5.34 µM against MAGL.
For `CN(C)C(=O)Oc1cc(OC(=O)N(C)C)c2c(=O)cc(-c3ccccc3)oc2c1` [Compound C2, 4-Oxo-2-phenyl-4H-chromene-5,7-diyl bis(dimethylcarbamate)], in that order: > 200 µM and 96.4 ± 1.54 µM.
`O=c1cc(-c2ccccc2)oc2cc(O)cc(O)c12` [Chrysin, reference compound]: the IC50 amounted to 157 ± 11.7 µM at AChE (setting [1]) and 169 ± 11.4 µM on MAGL (setting [2]).
As to `CCN(CC)C(=O)Oc1ccc(-c2oc3cc(OC(=O)N(CC)CC)cc(OC(=O)N(CC)CC)c3c(=O)c2OC(=O)N(CC)CC)cc1` [Compound K4, 2-(4-((Diethylcarbamoyl)oxy)phenyl)-4-oxo-4H-chromene-3,5,7-triyl tris(diethylcarbamate)], the IC50 at AChE (setting [1]) and at MAGL (setting [2]) was > 200 µM in each case.
`O=c1c(O)c(-c2ccc(O)cc2)oc2cc(O)cc(O)c12` [Kaempferol, reference compound]: the IC50 was 226 ± 17.9 µM at AChE and 189 ± 7.89 µM at MAGL (setting [2]).
In the case of `CCN(C)C(=O)Oc1ccc(-c2oc3cc(OC(=O)N(C)CC)cc(O)c3c(=O)c2OC(=O)N(C)CC)cc1` [Compound K5, 2-(4-((Ethyl(methyl)carbamoyl)oxy)phenyl)-5-hydroxy-4-oxo-4H-chromene-3,7-diyl bis(ethyl(methyl)carbamate)], the IC50 at AChE was > 200 µM; on MAGL, 60.1 ± 4.74 µM.
Regarding `CCN(CC)C(=O)Oc1cc(OC(=O)N(CC)CC)c2c(=O)cc(-c3ccccc3)oc2c1` [Compound C4, 4-Oxo-2-phenyl-4H-chromene-5,7-diyl bis(diethylcarbamate)], the IC50 on AChE (setting [1]) and on MAGL (setting [2]) was > 200 µM throughout.
`CN(C)C(=O)Oc1ccc(-c2oc3cc(OC(=O)N(C)C)cc(OC(=O)N(C)C)c3c(=O)c2OC(=O)N(C)C)cc1` [Compound K2, 2-(4-((Dimethylcarbamoyl)oxy)phenyl)-4-oxo-4H-chromene-3,5,7-triyl tris(dimethylcarbamate)]: the concentration for half-maximal inhibition (IC50) at AChE and against MAGL was > 200 µM in each case.
Regarding `CN(C)C(=O)Oc1ccc(-c2oc3cc(OC(=O)N(C)C)cc(O)c3c(=O)c2OC(=O)N(C)C)cc1` [Compound K1, 2-(4-((Dimethylcarbamoyl)oxy)phenyl)-5-hydroxy-4-oxo-4H-chromene-3,7-diyl bis(dimethylcarbamate)], the values for the half-maximal inhibitory concentration (IC50) against AChE and at MAGL were 100 ± 7.85 µM and 126 ± 8.28 µM, respectively.
As to `CCN(CC)C(=O)Oc1cc(O)c2c(=O)cc(-c3ccccc3)oc2c1` [Compound C3, 5-Hydroxy-4-oxo-2-phenyl-4H-chromen-7-yl diethylcarbamate], the IC50 at AChE (setting [1]) is 61.8 ± 1.42 µM; on MAGL (setting [2]), 22.9 ± 1.3 µM.

(Values after paper PMC12090193, “Flavonoid carbamate hybrids: design, synthesis, and evaluation as multi-target enzyme inhibitors for Alzheimer's disease” (RSC Advances, 2025).)
